In PubChem BioAssay (NCI) one finds GI50 and TGI data, which are given here for seven compounds.

Usually GI50 stands for the concentration that inhibits growth by half. What is called TGI is the concentration at which net growth stops. Lower therefore signals more potent growth arrest.

“And” between values parts separate entries of the source, which are not always exact repeats. Equal values may be shown once.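 Briefly, cells in 96-well plates were exposed to five compound concentrations for 48 h, and endpoints were estimated by linear interpolation. GI50 = concentration required for 50% inhibition of growth. TGI is the concentration that stops growth completely.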

Among the test systems are HT29 colon; HL-60(TB) leukemia; BT-549 breast; MOLT-4 leukemia; HCT-116 colon; MALME-3M melanoma; SW-620 colon; HOP-62 NSCLC; RPMI-8226 leukemia; SF-539 CNS.
Test in all cases: DTP human tumour cell line panel, 48 h

Consider `COc1ccccc1/C=C/C(=O)c1ccccc1`, for which the GI50 in the assay with HT29 colon is 5730 nM; in the assay on HL-60(TB) leukemia, 2180 nM; in the assay with BT-549 breast it was 10.2 µM; in the assay with MOLT-4 leukemia, 2920 nM; with HCT-116 colon, 3500 nM; with MALME-3M melanoma, 15.4 µM. In addition, the GI50 in the assay with SW-620 colon is 2660 nM; in the assay with HOP-62 NSCLC, 18.8 µM; in the assay with RPMI-8226 leukemia, 560 nM; in the assay on SF-539 CNS, 16400 nM. Moreover, the total growth inhibition concentration (TGI) in the assay on HT29 colon is 26.9 µM; in the assay on HL-60(TB) leukemia, 20.9 µM; in the assay with BT-549 breast, 23.9 µM; with MOLT-4 leukemia, greater than 36.6 µM; in the assay with HCT-116 colon it was 12.8 µM; in the assay on MALME-3M melanoma, 31.6 µM. Further, the TGI in the assay with SW-620 colon worked out at 7.08 µM; in the assay with HOP-62 NSCLC, 37 µM; in the assay with RPMI-8226 leukemia, 3.16 µM; with SF-539 CNS, 30.8 µM.
`COc1cc2ncnc(Nc3ccc(F)c(Cl)c3)c2cc1NC(=O)/C=C/CN1CCCCC1`: the GI50 is 1680 nM and 2080 nM in the assay on HT29 colon; 1650 nM and 814 nM in the assay with HL-60(TB) leukemia; 2.49 µM and 2.56 µM in the assay with BT-549 breast; 1410 nM and 1590 nM in the assay on MOLT-4 leukemia; 1450 nM and 1540 nM in the assay with HCT-116 colon; 1.73 µM and 1.61 µM in the assay with MALME-3M melanoma. The GI50 in the assay on SW-620 colon was 1840 nM and 1640 nM; in the assay with HOP-62 NSCLC, 2.11 µM and 3.02 µM; with RPMI-8226 leukemia it was 1950 nM and 1930 nM; in the assay with SF-539 CNS, 1630 nM and 1560 nM. For the same compound, the TGI in the assay with HT29 colon is 3.59 µM and > 7.79 µM; with HL-60(TB) leukemia it was 3.64 µM and 3.11 µM; with BT-549 breast it was 8.32 µM and 9.98 µM; with MOLT-4 leukemia, 4.97 µM and 7.26 µM; in the assay on HCT-116 colon, 3.1 µM and 3.54 µM; in the assay on MALME-3M melanoma, 3.31 µM and 3.09 µM. In addition, the total growth inhibition concentration (TGI) is 4.42 µM and 3.54 µM in the assay with SW-620 colon; 5.65 µM and > 9.66 µM in the assay on HOP-62 NSCLC; 5.11 µM and 4.99 µM in the assay with RPMI-8226 leukemia; 3.08 µM and 3.03 µM in the assay with SF-539 CNS.
In the case of `CC(CCC(=O)O)C(=O)O` (centres undefined), the TGI with HT29 colon, in the assay with HL-60(TB) leukemia, in the assay with BT-549 breast, in the assay on MOLT-4 leukemia, in the assay with HCT-116 colon and in the assay on MALME-3M melanoma was greater than 100 µM throughout. Moreover, the TGI in the assay with SW-620 colon, in the assay with HOP-62 NSCLC, in the assay on RPMI-8226 leukemia and in the assay with SF-539 CNS was greater than 100 µM throughout.
Take `CN1C(=O)N(C)C2C1NN=c1s/c(=C\c3ccc(F)cc3)c(=O)n12` (centres undefined): the GI50 is 951 nM in the assay on HT29 colon; 1630 nM with HL-60(TB) leukemia; 13.1 µM in the assay on BT-549 breast; 3070 nM in the assay on MOLT-4 leukemia; 795 nM with HCT-116 colon; 3.17 µM in the assay with MALME-3M melanoma. Besides, the GI50 in the assay with SW-620 colon was 1860 nM; with HOP-62 NSCLC it was 3.48 µM; in the assay on RPMI-8226 leukemia it was 2560 nM; in the assay with SF-539 CNS, 2100 nM. Further, the concentration for total growth inhibition (TGI) in the assay on HT29 colon was greater than 100 µM; in the assay with HL-60(TB) leukemia, 4.53 µM; in the assay with BT-549 breast, greater than 100 µM; with MOLT-4 leukemia, greater than 100 µM; in the assay with HCT-116 colon it was greater than 100 µM; with MALME-3M melanoma it was greater than 100 µM. In addition, the TGI with SW-620 colon is greater than 100 µM; with HOP-62 NSCLC it was greater than 100 µM; with RPMI-8226 leukemia, 8.91 µM; in the assay with SF-539 CNS, 5.72 µM.
For `Cc1[nH]nc(C(=O)n2nc(N)c3ccccc32)c1[N+](=O)[O-]`, the GI50 with HT29 colon is greater than 100000 nM; with BT-549 breast, greater than 90.8 µM; in the assay on MOLT-4 leukemia, greater than 89400 nM; with HCT-116 colon it was greater than 100000 nM; in the assay on MALME-3M melanoma, greater than 100 µM; in the assay on SW-620 colon, greater than 100000 nM. In addition, the GI50 with HOP-62 NSCLC is greater than 100 µM; in the assay with RPMI-8226 leukemia, greater than 100000 nM; in the assay with SF-539 CNS, greater than 100000 nM. Moreover, the TGI in the assay on HT29 colon, in the assay on HL-60(TB) leukemia, in the assay with BT-549 breast, in the assay with MOLT-4 leukemia, with HCT-116 colon and in the assay with MALME-3M melanoma was greater than 100 µM throughout. Further, the TGI in the assay on SW-620 colon, with HOP-62 NSCLC, in the assay on RPMI-8226 leukemia and with SF-539 CNS was greater than 100 µM each time.
As for `CCN(CC)C(=S)SC`, the concentration for total growth inhibition (TGI) with HT29 colon, in the assay on HL-60(TB) leukemia, in the assay on BT-549 breast, with MOLT-4 leukemia, with HCT-116 colon and in the assay on MALME-3M melanoma was greater than 100 µM in each case. Besides, the TGI with SW-620 colon, in the assay on HOP-62 NSCLC, in the assay on RPMI-8226 leukemia and in the assay on SF-539 CNS was greater than 100 µM each time.
On to `COc1ccc2cc(-c3c(-c4ccncc4)nc(-c4ccc(S(C)(=O)=O)cc4C)n3C)ccc2c1`, for which the GI50 was 8370 nM in the assay on HT29 colon; 6540 nM with HL-60(TB) leukemia; 10.6 µM in the assay on BT-549 breast; 6910 nM with MOLT-4 leukemia; 7620 nM in the assay with HCT-116 colon; 4.9 µM in the assay on MALME-3M melanoma. For the same compound, the GI50 in the assay with SW-620 colon was 9680 nM; in the assay with HOP-62 NSCLC, 8.81 µM; with RPMI-8226 leukemia, 9890 nM; in the assay with SF-539 CNS it was 10800 nM. For the same compound, the total growth inhibition concentration (TGI) is greater than 25 µM with HT29 colon; 21.7 µM in the assay on HL-60(TB) leukemia; greater than 25 µM with BT-549 breast; greater than 25 µM in the assay with MOLT-4 leukemia; greater than 25 µM in the assay with HCT-116 colon; greater than 25 µM with MALME-3M melanoma. Further, the total growth inhibition concentration (TGI) in the assay on SW-620 colon was greater than 25 µM; in the assay on HOP-62 NSCLC, greater than 23.9 µM; in the assay with RPMI-8226 leukemia, greater than 25 µM; in the assay with SF-539 CNS it was greater than 25 µM.
